Reference: patent US10064839B2, “Methods of treating liver diseases” (Zafgen, Inc., priority 2012, dated 2018)
pEC50, pIC50: −log10 of the molar value. Converted amounts (≈) assume the structure as drawn.

How the values were obtained:
[1] = Solubility; type: physicochemical; details: aqueous buffer; at pH 7.4
[2] = test system: Diet induced obese (DIO) C57BL6 mice; test: Diet induced obese mouse study of compound A; type: in vivo
Method: Diet induced obese (DIO) C57BL6 mice were provided with varying doses of compound A and fumagillin (fum). Tissue biomarkers in peri-renal fat, mesenteric fat and the liver were measured.
(FIG. 3). Decrease in plasma insulin in mice, after once or twice a day administration of compound A vs. vehicle is also observed (FIG. 4).

[3] = molecular target: hERG (Homo sapiens, UniProt Q12809); test: hERG IC50
[4] = i.v. and p.o. exposure study, rat; type: in vivo
Method: (§1) Mouse, rat and dog studies were conducted to assess i.v. and p.o. (oral) exposure.

[5] = Plasma protein binding, rat; type: in vitro ADME; details: read-out: Plasma protein binding (h/r/m, %): r (converted)
[6] = i.v. and p.o. exposure study, dog; type: in vivo; details: plasma
Method: as §1

[7] = molecular target: CYP3A4 (Homo sapiens, UniProt P08684); test: CYP3A4 inhibition with pre-incubation; type: in vitro ADME; details: footnote to CYP IC50, HLM
[8] = Plasma protein binding, mouse; type: in vitro ADME; details: read-out: Plasma protein binding (h/r/m, %): m
[9] = test system: CYP (isoform not given); test: CYP IC50, HLM; type: in vitro ADME; details: human, human liver microsomes
[10] = test system: Cell cycle (G1 attenuation); test: Cell cycle (G1 attenuation); type: cell-based
[11] = i.v. and p.o. exposure study, mouse; type: in vivo
Method: as §1

[12] = molecular target: T1, recombinant human MetAP2 (Homo sapiens, UniProt P50579); test: Recombinant human MetAP2 inhibition assay (MAS substrate, Amplex red fluorescence); type: biochemical; details: first value of the cell; read-out: MetAP2/MetAP1 IC50 (nM): MetAP2
T1 construct: made in house; host or cells: Sf9 insect cells
Method: Compounds are tested for their capacity to inhibit recombinant human MetAP2 activity using the following assay.
Human recombinant MetAP2 expressed in Sf9 cells followed by affinity purification and EDTA treatment to remove endogenous active site cation was dialysed against MnCl2 to produce the manganese enzyme used in the assay. The assay was carried out for 30 minutes at 25° C. in 50 mM HEPES buffer containing 100 mM NaCl, pH 7.5 the presence of 0.75 mM Methionine-Alanine-Serine (MAS) substrate and 50 µg/ml amino acid oxidase using a dilution of purified MetAP2 giving >3-fold signal: noise. Cleavage of the substrate by MetAP2 and oxidation of free methionine by amino acid oxidase was detected and quantified using fluorescence generated by Amplex red (10-acetyl-3,7-dihydroxyphenoxazine) in combination with horseradish peroxidase which detects H2O2 released during the oxidation step. The fluorescent signal was detected using a multiwell fluorimeter. Compounds were diluted in DMSO prior to addition to assay buffer, the final DMSO concentration in the assay being 1%.
IC50 values are calculated using the XLfit software package (version 2.0.5).

[13] = test system: HT1080; test: HT1080 EC50; type: cell-based; details: Homo sapiens, HT-1080; second of two values 28/8, key not given
[14] = molecular target: MetAP1 (Homo sapiens, UniProt P53582); test: MetAP1 IC50; type: biochemical; details: second value of the cell; read-out: MetAP2/MetAP1 IC50 (nM): MetAP1
[15] = AMES
[16] = liver/plasma, po, read-out: liver/plasma ratio
[17] = plasma, iv, read-out: Plasma T1/2 (converted)

Sequence of CYP3A4 (P08684 whole entry): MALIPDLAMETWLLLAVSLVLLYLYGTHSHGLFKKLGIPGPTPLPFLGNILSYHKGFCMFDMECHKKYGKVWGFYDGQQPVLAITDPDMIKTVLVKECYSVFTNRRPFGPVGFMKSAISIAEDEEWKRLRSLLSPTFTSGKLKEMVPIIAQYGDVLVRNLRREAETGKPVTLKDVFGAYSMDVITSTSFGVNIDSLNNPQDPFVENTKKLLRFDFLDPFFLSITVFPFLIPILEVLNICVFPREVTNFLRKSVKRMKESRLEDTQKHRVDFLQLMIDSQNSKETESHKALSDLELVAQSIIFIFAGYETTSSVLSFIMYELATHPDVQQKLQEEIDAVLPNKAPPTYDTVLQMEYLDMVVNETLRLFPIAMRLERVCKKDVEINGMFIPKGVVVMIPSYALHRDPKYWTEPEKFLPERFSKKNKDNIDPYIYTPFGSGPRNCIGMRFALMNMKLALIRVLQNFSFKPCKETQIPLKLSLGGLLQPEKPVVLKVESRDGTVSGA
Sequence of hERG (Q12809 whole entry): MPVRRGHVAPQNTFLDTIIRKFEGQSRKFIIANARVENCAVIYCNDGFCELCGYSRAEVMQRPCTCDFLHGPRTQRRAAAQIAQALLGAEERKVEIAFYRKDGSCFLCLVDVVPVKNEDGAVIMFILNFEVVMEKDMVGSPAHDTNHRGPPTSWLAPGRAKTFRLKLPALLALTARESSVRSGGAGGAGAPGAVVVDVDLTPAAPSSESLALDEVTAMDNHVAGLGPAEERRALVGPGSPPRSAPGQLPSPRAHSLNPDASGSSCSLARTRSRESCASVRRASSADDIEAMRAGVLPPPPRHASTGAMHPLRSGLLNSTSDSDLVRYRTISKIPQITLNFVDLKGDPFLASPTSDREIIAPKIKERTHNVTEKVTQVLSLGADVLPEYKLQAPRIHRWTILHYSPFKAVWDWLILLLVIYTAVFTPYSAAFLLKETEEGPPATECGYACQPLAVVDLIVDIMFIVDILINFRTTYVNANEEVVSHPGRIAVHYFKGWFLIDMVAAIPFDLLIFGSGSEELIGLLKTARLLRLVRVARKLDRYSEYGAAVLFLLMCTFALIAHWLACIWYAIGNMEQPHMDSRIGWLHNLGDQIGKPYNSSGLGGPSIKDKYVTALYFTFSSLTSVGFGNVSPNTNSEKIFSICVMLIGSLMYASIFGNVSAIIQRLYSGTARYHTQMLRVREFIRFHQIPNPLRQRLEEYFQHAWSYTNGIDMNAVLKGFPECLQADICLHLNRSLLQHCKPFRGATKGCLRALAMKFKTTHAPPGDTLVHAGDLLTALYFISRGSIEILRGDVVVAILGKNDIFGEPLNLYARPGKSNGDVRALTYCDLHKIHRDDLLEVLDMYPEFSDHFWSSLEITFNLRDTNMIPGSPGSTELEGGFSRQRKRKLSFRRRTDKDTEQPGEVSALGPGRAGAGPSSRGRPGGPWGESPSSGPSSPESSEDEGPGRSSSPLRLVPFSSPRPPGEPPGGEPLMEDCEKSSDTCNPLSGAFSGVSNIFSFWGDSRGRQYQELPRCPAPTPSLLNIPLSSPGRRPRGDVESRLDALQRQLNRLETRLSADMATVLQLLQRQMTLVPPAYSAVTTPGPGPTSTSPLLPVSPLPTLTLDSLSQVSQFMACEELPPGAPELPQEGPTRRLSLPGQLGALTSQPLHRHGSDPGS
T1 sequence (P50579 whole entry): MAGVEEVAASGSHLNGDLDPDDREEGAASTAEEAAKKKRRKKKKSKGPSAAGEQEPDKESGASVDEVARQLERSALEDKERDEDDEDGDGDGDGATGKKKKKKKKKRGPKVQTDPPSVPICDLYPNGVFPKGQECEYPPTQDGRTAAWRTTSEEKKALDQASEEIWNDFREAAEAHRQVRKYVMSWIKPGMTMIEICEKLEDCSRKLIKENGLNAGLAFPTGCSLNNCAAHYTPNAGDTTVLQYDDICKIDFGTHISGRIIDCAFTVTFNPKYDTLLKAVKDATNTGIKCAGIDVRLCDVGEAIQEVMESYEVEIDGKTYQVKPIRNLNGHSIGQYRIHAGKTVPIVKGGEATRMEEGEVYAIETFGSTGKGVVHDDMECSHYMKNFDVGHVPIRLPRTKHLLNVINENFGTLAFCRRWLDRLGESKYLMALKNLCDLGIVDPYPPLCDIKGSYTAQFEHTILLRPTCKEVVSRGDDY

In the case of `CCN(CC)C/C=C\c1cc(F)ccc1S(=O)(=O)Nc1ccc2c(c1C(=O)O)OC[C@@H]1C[C@H]21` (single isomer, unassigned) [Example 12], the solubility [1] was ~100 µg/mL (≈ 211 µM), the “Expression of genes implicated in pathogenesis of fatty liver and fibrosis (liver mRNA microarray)” value ([2]; 3 mg/kg/bid×10 days, DIO obese mice, FIG. 6) was “favorably regulated” and the “Tissue biomarkers in peri-renal fat, mesenteric fat and the liver” value ([2]; DIO C57BL6 mice, varying doses, FIG. 1) was “primarily targets the liver”. For the same molecule, the Liver weight ([2]; FIG. 5) was “reduction”, the “Mesenteric adipose tissue weight” value ([2]; FIG. 5) was “reduction” and the “Change in bodyweight after 10 days” value ([2]; obese mice, increasing doses over 10 days, vs vehicle, FIG. 2) was “marked decrease in body weight”. The Blood cholesterol ([2]; obese mice, vs vehicle, FIG. 3) was “marked lowering”, the Blood glucose ([2]; obese mice, vs vehicle, FIG. 3) was “marked lowering” and the Plasma insulin ([2]; once or twice a day administration vs vehicle, FIG. 4) was “Decrease”. The pIC50 [3] was < 4.48, the Kp [4, 16] was 39 and the clearance ([4]; plasma, iv) was 54 mL/min/kg. For the same molecule, the half-life [4, 17] was 1.2 h, the Vd ([4]; plasma, iv, read-out: Vss) was 3.4 L/kg and the AUC ([4]; plasma, po) was 356 ng·h/mL. It also gave a bioavailability ([4]; plasma, po) of 22%, a fraction unbound [5] of 0.189 and a clearance ([6]; iv) of 14 mL/min/kg. The half-life ([6]; iv, read-out: Plasma T1/2 (converted)) was 3.6 h, the Vd ([6]; iv, read-out: Vss) was 1.3 L/kg and the AUC ([6]; po) was 711 ng·h/mL. The bioavailability ([6]; po) was 20%, the “CYP3A4 signal with pre-incubation” value [7] was “*CYP3A4 signal observed with pre-incubation” and the fraction unbound [8] was > 0.3. For the same molecule, the IC50 [9] was > 10 µM, the “Cell cycle (G1 attenuation, nM)” value [10] was 3 nM and the Kp [11, 16] was 38. For the same molecule, the clearance ([11]; plasma, iv) was 126 mL/min/kg, the half-life [11, 17] was 0.9 h and the Vd ([11]; plasma, iv, read-out: Vss) was 3.1 L/kg. It also gave an AUC ([11]; plasma, po) of 497 ng·h/mL, a bioavailability ([11]; plasma, po) of 53% and an IC50 [12] of 25 nM. The pEC50 [13] was 8.10, the IC50 [14] was 50000 nM and the AMES [15] was “negative”.
